Assay results from US7737185B2 (Repros Therapeutics Inc., priority 2001, dated 2010).

Legend:
total serum testosterone = experiment: Serum testosterone in male baboons given Clomid, Enclomid or Zuclomid; format: in vivo; conditions: for Effect on total serum testosterone: 1.5 mg/kg for 12 days, male baboons
Source text: (§1) The samples analyzed were sera taken on the day of first treatment before being given test article (day 0), after 12 days of treatment (day 12) and 7 days after the last treatment (end or wash-out).

FSH, LH, testosterone = conditions: cited from earlier work
serum cholesterol = experiment: Serum cholesterol in male baboons; format: in vivo; conditions: 1.5 mg/kg for 12 days
Source text: as §1

[1] = Placebo controlled challenge study Androxal vs Androgel: side effects; format: in vivo, human; conditions: hypogonadal men, two week exposure
Procedure: (§2) Androgel® (Solvay Pharmaceuticals, Inc.) consists of a cream that administers exogenous testosterone in a transdermal matrix.
(§3) The study enrolled 62 hypogonadal men with testosterone levels less than 300 ng/dl (normal 298-1034 ng/dl) that were randomized into 6 different arms, three doses of Androxal™ (12.5 mg, 25 mg, and 50 mg), placebo, and both high and low doses of Androgel®. Half of the men in each of the Androxal™ and placebo arms were randomized into cohorts that underwent in-clinic sessions on days 1 and 14 to determine pharmacokinetic parameters for Androxal™ as well as cyclical changes in testosterone. The placebo and Androxal™ doses were administered in a double blind fashion. The Androgel® cream was administered in an open label fashion. Half of the Androgel® patients underwent in-clinic sessions similar to the other patients in the study. Following the two week drug exposure patients were followed for an additional seven to ten days to determine the status of their testosterone levels.

serum LH, FSH, PRL = experiment: Serum LH, FSH and prolactin in male baboons; format: in vivo; conditions: during the study
Source text: as §1

total testosterone = experiment: Placebo controlled challenge study Androxal vs Androgel: total testosterone; format: in vivo, human; conditions: for Mean increase in testosterone from baseline: hypogonadal men, two weeks
Procedure: as §2, §3

serum LH, FSH = experiment: Placebo controlled challenge study Androxal vs Androgel: serum LH and FSH; format: in vivo, human
Procedure: as §2, §3

triglycerides = experiment: Placebo controlled challenge study Androxal vs Androgel: triglycerides; format: in vivo, human; conditions: after two weeks of therapy, non-dose dependent; placebo 5.9% reduction
Procedure: as §2, §3

[2] = following a single dose; cited from earlier work

CCN(CC)CCOc1ccc(C(=C(Cl)c2ccccc2)c2ccccc2)cc1 [Clomid, clomiphene]
Variability of total testosterone levels (coefficients of variation) (total serum testosterone; day 6 and later, compared to animals receiving Enclomid): more variable total testosterone levels | FSH, LH after treatment (FSH, LH, testosterone; both young and old men): increases in FSH, LH | Free and total testosterone after treatment (FSH, LH, testosterone; men, young men showing significant increases): increases in free and total testosterone | Change in serum cholesterol levels (serum cholesterol): slight increase

CCN(CC)CCOc1ccc(/C(=C(\Cl)c2ccccc2)c2ccccc2)cc1 [Enclomid, trans-clomiphene]
Platelet count (12-day treatment): lowering of the platelet count | Eosinophil counts (male baboons): raising the counts | Lymphocytes, count and per cent (male baboons): increase | Red blood cell population (male baboons): substantive effects | Per cent of granulocytes in the blood (very strong after the 7-day washout period): strong effect | Side effects different than placebo [1]: no side effects noted | Serum prolactin (PRL) (serum LH, FSH, PRL): decrease in serum prolactin | Coefficient of variation (CV) of mean total testosterone (total testosterone; 50 mg dose, after 15 days): 29% | Mean total testosterone (total testosterone; 50 mg dose, after 15 days): 589 ± 172 ng/dL | Mean increase in testosterone from baseline (total testosterone; high dose (50 mg) oral): 294 ng/dL | Mean increase in testosterone from baseline (total testosterone; low dose (12.5 mg) oral): 169 ng/dL | Mean increase in testosterone from baseline (total testosterone; mid dose (25 mg) oral): 247 ng/dL | Effect on total serum testosterone (total serum testosterone): significant increases in total serum testosterone | Change in total serum testosterone after cessation of treatment (total serum testosterone; between day 12 and day 18 (washout)): significant drop | Decrease in serum cholesterol levels (serum cholesterol): 8% | Serum LH in the follow-up period (serum LH, FSH; 7-10 days after cessation of daily treatment): remained high | Serum FSH in the follow-up period (serum LH, FSH; after cessation of treatment): remains high | Serum levels of LH during treatment (serum LH, FSH; hypogonadal male subjects (FIG. 5)): statistically significant increase | Serum levels of FSH during treatment (serum LH, FSH; hypogonadal male subjects (FIG. 6)): statistically significant increase | Reduction in triglycerides (average decrease) (triglycerides): 19.1%

CCN(CC)CCOc1ccc(/C(=C(/Cl)c2ccccc2)c2ccccc2)cc1 [Zuclomid, cis-clomiphene, reference compound]
Hematocrit (male baboons): demonstrated a statistical difference | Red blood cell population (male baboons): substantive effects | Effect on total serum testosterone (total serum testosterone): did not raise total serum testosterone to any extent | Increase in serum cholesterol levels (serum cholesterol): 22% | Residual blood levels [2]: in excess of one month
